Holding throughout (format): in vivo
Assay [1] relates to emetic response (cisplatin). Kind of assay: Inhibition of Chemotherapy Induced Nausea and Vomiting (cisplatin, ferret). The note with it: administered twice, cisplatin 10 mg/kg i.v., 5 hours. The source says: 2. Inhibition of Chemotherapy Induced Nausea and Vomiting
Adult male ferrets (initial body weight 1.3-1.8 kg) were individually housed, fed once daily (200 g Chum Puppy Food plus 50 g Lab Diet A) and were supplied with water ad libitum. Additionally, each animal was given 1/2 pint of milk daily during an acclimatization period.
To facilitate intravenous administration of drugs, a chronic indwelling catheter was surgically implanted into the jugular vein using a modification of the technique described by Florczyk and Schurig, 1981 (Pharmacol. Biochem. Behav., 14, 255-257). Prior to surgery each animal was sedated with ketamine hydrochloride (40 mg/animal intramuscularly) and anaesthetised with a halothane-N2 O--O2 mixture. A four day recovery period was allowed before commencement of an experiment.
For each group of animals, a preliminary study was carried out to establish an intravenous dose level of cisplatin which would give a consistent and reproducible emetic response. The appropriate dose of test compound was administered intravenously twice to each animal; 30 minutes before and 45 minutes after dosing with cisplatin. Running controls received vehicle and cisplatin only.
A single emetic response commenced when an animal assumed a characterrc posture with retching and was concluded when either vomitus was expelled or was present in the mouth as evidenced by a chewing movement.
All solutions were prepared in water for injection B. P. Cisplatin was prepared from vials of Neoplatin for injection (Mead Johnson; dose volume of […]).

The subject of assay [2] is Radiation Induced Nausea and Vomiting. Briefly: Inhibition of Radiation Induced Nausea and Vomiting (X-ray, ferret). The note with it: for No. of animals completely protected/No. of animals used: 2 to 4 minutes before irradiation; for Latency period, Group Mean (±s.e.m.): taken as 120 minutes in animals completely protected, vehicle 19.4 (±1.1); for No. of emetic episodes, Group Mean (±s.e.m.): vehicle 28.8 (±1.3). From the text:
3. Inhibition of Radiation Induced Nausea and Vomiting.
Ferrets with surgically implanted indwelling venous cannulae were restrained in a purposely constructed perspex box, and exposed to ionising radiation from an X-ray source. The X-ray source (Machlett, Model OEG-50, Tungsten Anode) was approximately 25 cm from the upper surface of the animal, and was operated at 50 Kv and 20 mA through a 1 mm beryllium window and 0.18 mm aluminium filtration. The whole body of each animal was irradiated for 10.4 minutes at a dose rate of 300 rad/minute. At the completion of irradiation animals were put back in their pens and observed for at least 120 minutes. The time from the start of irradiation to the first emetio episode (latency period), and the number of emetic episodes were recorded. […] The test compound was injected intravenously 2 to 4 minutes before the start of irradiation.

In assay [3] the test system is von Bezold-Jarisch reflex evoked by 5HT. Briefly: Antagonism of the von Bezold-Jarisch reflex evoked by 5HT in the anaesthetised rat. Particulars: iv, anaesthetised male rats, i.v., 5-HT 6-20 μg/kg i.v., heart rate, read-out: ED50 (reduction of the 5HT-evoked response to 50% of the control response). On the procedure:
1. Antagonism of the von Bezold-Jarisch reflex
The compounds were evaluated for antagonism of the von Bezold-Jarisch reflex evoked by 5HT in the anaesthetised rat according to the following method:
Male rats 250-350 g, were anaesthetised with urethane (1.25 g/kg intraperitoneally) and blood pressure and heart rate recorded as described by Fozard J. R. et al., J. Cardiovasc. Pharmacol. 2, 229-245 (1980). A submaximal dose of 5-HT (6-20 μg/kg) was given repeatedly by the intravenous route and changes in heart rate quantified. Test Compounds were given intravenously and the concentration required to reduce the 5HT-evoked response to 50% of the control response (ED50) was then determined.

In assay [4] the test system is arrhythmias after coronary ligation. Briefly: Antiarrhythmic Activity, dog coronary ligation model. The note with it: for reduction of ectopic beats on day 2 (max. effects) / antagonism of arrhythmias on day 2 (max. effects): 48 h after coronary ligation; for reduction of ectopic beats on day 1 (max. effects) / antagonism of arrhythmias on day 2 (max. effects): 2. dog. On the procedure:
4. Antiarrhythmic Activity
The compound of Example 9 was tested for antiarrhythmic activity in the dog coronary ligation model (method: Harris, A., Circulation Res. 1, 1318-1328, 1950).

Here are results for one molecule from patent US4786643A, “Treatment of migraine, cluster headaches and trigeminal neuralgia” (Beecham Group p.l.c., priority 1985, dated 1988).

Molecules are shown by their SMILES.

By ED50 is commonly meant the dose at which the effect has come halfway, by size or by number of responders. Take `COc1cc(N)c(Cl)cc1C(=O)NC1CCN2CCCC1C2` (racemic) [Example 9, (±)4-amino-5-chloro-2-methoxy-N-(4[1-azabicyclo-3,3,1]-nonyl])-benzamide]: the “No. of animals completely protected/No. of animals used” value was 1/6 in assay [1] (0.65 mg/kg i.v.); 4/6 in assay [1] (1.25 mg/kg i.v.); 3/6 in assay [1] (2.5 mg/kg i.v.); 1/4 in assay [2] (0.25 mg/kg i.v.); 2/5 in assay [2] (1.25 mg/kg i.v.). Moreover, the “Latency period, Group Mean (±s.e.m.)” value in assay [2] (0.25 mg/kg i.v., P < 0.05) was 64.0 (±18.7); in assay [2] (1.25 mg/kg i.v., P < 0.01), 79.2 (±16.7). Also, the “No. of emetic episodes, Group Mean (±s.e.m.)” value in assay [2] (0.25 mg/kg i.v., P < 0.05) is given as 7.8 (±3.3); in assay [2] (1.25 mg/kg i.v., P < 0.01), 1.2 (±0.6). Besides, the 50% effective dose (ED50) in assay [3] came out at 3.3 µg/kg. Also, the “effect on day 1-arrhythmias (max. effects)” value in assay [4] (1. dog, 24 h after coronary ligation, 0.5-3.0 mg/kg) is listed as “no effect”. Moreover, the “reduction of ectopic beats on day 2 (max. effects)” value in assay [4] (1. dog, 2.0 mg/kg) was 41%; in assay [4] (1. dog, 3.0 mg/kg) it was 76%. Also, the “reduction of ectopic beats on day 1 (max. effects)” value in assay [4] (24 h after coronary ligation, 20 mg/kg (so in the source)) is 69%; in assay [4] (24 h after coronary ligation, 1,0 mg/kg), 63%; in assay [4] (24 h after coronary ligation, 3,0 mg/kg), 82%. The “antagonism of arrhythmias on day 2 (max. effects)” value in assay [4] (0.5 mg/kg) is 89%; in assay [4] (1.0 mg/kg) it was 100%.
